# Details: not told
row,percentage average value (%av) of permeability,SMILES
1,0.9%,OB(O)O [Boric acid]
2,not measurable,"C[C@@H]1O[C@@H](O[C@@H]2[C@@H](O)[C@H](OCCc3ccc(O)c(O)c3)O[C@H](CO)[C@H]2OC(=O)/C=C/c2ccc(O)c(O)c2)[C@H](O)[C@H](O)[C@H]1O [VERBASCOSIDE, Verbascoside]"
